{"source": "patent US12630529B2", "about": "“GCN2 modulator compounds” (ALESTA THERAPEUTICS BV, priority 2020, dated 2026)"}
{"biological_target": "T1, GCN2 (Mus musculus, UniProt Q9QZ05)", "T1 construct": "endogenous in cells; host or cells: Neuro 2a (N2a)", "T1 sequence (Q9QZ05 whole entry)": "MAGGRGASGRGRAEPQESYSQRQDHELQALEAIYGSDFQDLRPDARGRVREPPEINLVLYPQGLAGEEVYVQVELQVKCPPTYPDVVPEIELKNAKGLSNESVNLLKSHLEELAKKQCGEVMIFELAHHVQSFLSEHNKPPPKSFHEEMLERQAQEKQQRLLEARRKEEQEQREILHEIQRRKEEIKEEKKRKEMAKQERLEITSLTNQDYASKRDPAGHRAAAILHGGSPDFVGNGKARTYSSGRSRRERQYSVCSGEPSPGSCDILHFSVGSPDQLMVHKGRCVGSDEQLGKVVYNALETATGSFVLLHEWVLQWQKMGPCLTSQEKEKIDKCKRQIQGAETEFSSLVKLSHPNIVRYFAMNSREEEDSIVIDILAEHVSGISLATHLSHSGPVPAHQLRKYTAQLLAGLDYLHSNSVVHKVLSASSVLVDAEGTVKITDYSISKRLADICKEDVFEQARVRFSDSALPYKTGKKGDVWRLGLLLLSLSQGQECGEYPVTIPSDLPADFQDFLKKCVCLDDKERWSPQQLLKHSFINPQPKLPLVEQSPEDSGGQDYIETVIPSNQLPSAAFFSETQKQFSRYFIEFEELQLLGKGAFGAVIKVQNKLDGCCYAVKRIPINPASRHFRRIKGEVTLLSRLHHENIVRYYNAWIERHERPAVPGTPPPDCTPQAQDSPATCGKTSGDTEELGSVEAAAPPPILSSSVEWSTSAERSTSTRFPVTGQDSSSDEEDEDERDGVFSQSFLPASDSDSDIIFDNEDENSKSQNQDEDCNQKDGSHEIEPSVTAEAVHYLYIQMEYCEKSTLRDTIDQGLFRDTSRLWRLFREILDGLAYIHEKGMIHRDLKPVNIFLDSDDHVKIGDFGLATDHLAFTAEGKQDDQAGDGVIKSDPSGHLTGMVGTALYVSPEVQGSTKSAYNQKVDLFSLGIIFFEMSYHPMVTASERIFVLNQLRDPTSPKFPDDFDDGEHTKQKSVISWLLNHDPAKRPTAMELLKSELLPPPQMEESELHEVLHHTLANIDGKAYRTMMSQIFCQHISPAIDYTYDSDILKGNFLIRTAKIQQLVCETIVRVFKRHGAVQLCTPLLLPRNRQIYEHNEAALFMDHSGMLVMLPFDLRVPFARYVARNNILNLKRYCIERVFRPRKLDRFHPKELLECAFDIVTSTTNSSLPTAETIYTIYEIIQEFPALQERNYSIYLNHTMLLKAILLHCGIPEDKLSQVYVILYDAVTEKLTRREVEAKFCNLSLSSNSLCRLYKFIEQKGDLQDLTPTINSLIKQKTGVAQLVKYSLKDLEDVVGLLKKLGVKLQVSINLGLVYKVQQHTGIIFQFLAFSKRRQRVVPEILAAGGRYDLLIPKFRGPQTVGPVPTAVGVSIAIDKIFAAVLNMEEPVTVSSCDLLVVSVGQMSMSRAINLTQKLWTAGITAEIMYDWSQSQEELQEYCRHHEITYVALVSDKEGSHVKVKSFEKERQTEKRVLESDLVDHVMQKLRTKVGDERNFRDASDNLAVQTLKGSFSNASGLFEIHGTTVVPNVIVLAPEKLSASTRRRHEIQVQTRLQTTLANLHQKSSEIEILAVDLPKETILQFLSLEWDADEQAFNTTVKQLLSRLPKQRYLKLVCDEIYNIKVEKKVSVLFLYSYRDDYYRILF", "assay": "GCN2 inhibition cell-based assay (P-GCN2 Western blot in Neuro 2a cells)", "conditions": "amino acid deprived media (DMEM lacking L-cysteine and methionine), 3 hours", "method": "Neuro 2a cells (N2a) were maintained at 37° C. and 5% CO2 in DMEM/F12 medium (Fisher Scientific) supplemented with 10% fetal bovine serum and 1% penicillin-streptomycin (complete medium). 300,000 cells/well were seeded in flat bottom 6 well plates 48 hours before treatment with the compounds.\nTesting compounds were prepared at different concentrations ranging from 10 μM to 0.1 nM on DMEM medium lacking L-cysteine and methionine (DMEM-CM) (Gibco) and supplemented with 1% penicillin-streptomycin. Complete medium was used as control of non-stressed condition. After 48 hours, the medium was removed from each well and 2 mL per well of each treatment was added. Cells were treated for 3 hours at 37° C. and 5% CO2.\nAfter the incubation time, each well was washed with sterile 1×PBS and then 100 μL of ice-cold lysis buffer supplemented with phosphatase and protease inhibitors was added. Lysates were transferred to 1.5 mL tubes and sonicated for 3 min, and total protein amounts were quantified using BCA assay (e.g., BCA Protein Assay Kit; Pierce) according to manufacturer instructions. Equal amount of proteins was loaded on SDS-PAGE gels for electrophoresis and then transferred onto 0.2 µm filter pore PVDF membranes.\nMembranes were then blocked in blocking buffer containing 3% BSA/0.1% Tween/1×Tris-buffered saline (TBS) for 1 hour and then incubated overnight at 4° C. with agitation with anti-pGCN2 primary antibody (Abcam ab-75836), diluted 1:1,000 in blocking buffer. […] (Sigma Aldrich) was used as a loading control.\nMembranes were then incubated with the corresponding secondary antibody to detect immune-reactive bands using enhanced chemiluminescence (e.g., ECL Western Blotting Substrate Pierce).\nImages were acquired (e.g., using Chemidoc™ equipment) and quantitated by densitometry using ImageJ software. IC50 values were determined from a concentration-response curve using GraphPad prism software.\nIC50 values from P-GCN2 inhibition assay after induction with amino acid deprived media in the presence of different concentrations of test compounds are shown in Table 2. For IC50 values: +++ refers to <10 nM of test compound; ++ refers to 10 nM to 100 nM of test compound; + refers to 100 nM to 1,000 nM of test compound and − refers to >1,000 nM of test compound.\nUnder GCN2-mediated stress conditions, resulting from an amino acid deprived medium, GCN2 is generally phosphorylated. Accordingly, inhibition of GCN2 phosphorylation as a result of the test compound indicates inhibition of the GCN2 pathway.", "units": {"IC50": "nM"}}
{"smiles": "COc1ncc(Cl)cc1S(=O)(=O)Nc1ccc(F)c(-c2ccc3nc(N[C@@H](CO)c4ccccc4)ncc3c2)c1F", "note": "[Compound 154]", "IC50": "100 to 1000"}
{"smiles": "Cc1cc(C)cc(S(=O)(=O)Nc2ccc(F)c(-c3ccc4nc(N)ncc4c3)c2F)c1", "note": "[Compound 113]", "IC50": "< 10"}
{"smiles": "COc1cc(S(=O)(=O)Nc2ccc(F)c(-c3ccc4nc(N)ncc4c3)c2F)ccc1F", "note": "[Compound 143]", "IC50": "100 to 1000"}
{"smiles": "Nc1ncc2cc(-c3c(F)ccc(NS(=O)(=O)c4ccc(F)c(C(F)(F)F)c4)c3F)ccc2n1", "note": "[Compound 138]", "IC50": "> 1000"}
{"smiles": "COc1ccc(S(=O)(=O)Nc2ccc(F)c(-c3ccc4nc(N)ncc4c3)c2F)cc1Cl", "note": "[Compound 148]", "IC50": "100 to 1000"}
{"smiles": "O=S(=O)(Nc1ccc(F)c(-c2ccc3nc(N[C@H](CO)c4ccccc4)ncc3c2)c1F)c1cc(Cl)ccc1C(F)(F)F", "note": "[Compound 166]", "IC50": "100 to 1000"}
{"smiles": "Cc1ccc(S(=O)(=O)Nc2ccc(F)c(-c3ccc4nc(N)ncc4c3)c2F)cc1F", "note": "[Compound 159]", "IC50": "10 to 100"}
{"smiles": "COc1ccc(S(=O)(=O)Nc2ccc(F)c(-c3ccc4nc(N)ncc4c3)c2F)cc1C", "note": "[Compound 117]", "IC50": "> 1000"}
{"smiles": "Nc1ncc2cc(-c3c(F)ccc(NS(=O)(=O)c4cccs4)c3F)ccc2n1", "note": "[Compound 142]", "IC50": "> 1000"}
{"smiles": "COc1ncc(Cl)cc1S(=O)(=O)Nc1ccc(F)c(-c2ccc3nc(N(C)C)ncc3c2)c1F", "note": "[Compound 155]", "IC50": "100 to 1000"}
{"smiles": "Nc1ncc2cc(-c3c(F)ccc(NS(=O)(=O)c4cccnc4)c3F)ccc2n1", "note": "[Compound 130]", "IC50": "> 1000"}
{"smiles": "Nc1ncc2cc(-c3c(F)ccc(NS(=O)(=O)c4cc(C(F)(F)F)ccc4F)c3F)ccc2n1", "note": "[Compound 135]", "IC50": "100 to 1000"}
{"smiles": "COc1ncc(Cl)cc1S(=O)(=O)Nc1ccc(F)c(-c2ccc3nc(NC(CO)CO)ncc3c2)c1F", "note": "[Compound 153]", "IC50": "10 to 100"}
{"smiles": "COc1ncc(Cl)cc1S(=O)(=O)Nc1ccc(F)c(-c2ccc3nc(NC(=O)C(C)(C)C)ncc3c2)c1F", "note": "[Compound 105]", "IC50": "10 to 100"}
{"smiles": "Nc1ncc2cc(-c3c(F)ccc(NS(=O)(=O)c4cc(F)ccc4F)c3F)ccc2n1", "note": "[Compound 8]", "IC50": "> 1000"}
{"smiles": "COc1ncc(Cl)cc1S(=O)(=O)Nc1ccc(F)c(-c2ccc3nc(N[C@H]4CC[C@H](O)CC4)ncc3c2)c1F", "note": "[Compound 65]", "IC50": "< 10"}
{"smiles": "COc1ncc(Cl)cc1S(=O)(=O)Nc1ccc(F)c(-c2cccc3cnc(N)nc23)c1F", "note": "[Compound 44]", "IC50": "> 1000"}
{"smiles": "COc1ccc(Cl)cc1S(=O)(=O)Nc1ccc(F)c(-c2ccc3nc(N)ncc3c2)c1F", "note": "[Compound 10]", "IC50": "< 10"}
{"smiles": "Nc1ncc2cc(-c3c(F)ccc(NS(=O)(=O)c4ccc(F)c(C(F)(F)F)c4)c3F)ccc2n1", "note": "[Compound 136]", "IC50": "100 to 1000"}
{"smiles": "CNc1ncc2cc(-c3c(F)ccc(NS(=O)(=O)c4cc(Cl)cnc4OC)c3F)ccc2n1", "note": "[Compound 47]", "IC50": "< 10"}
{"smiles": "O=S(=O)(Nc1ccc(F)c(-c2cc(F)c3[nH]cnc3c2)c1F)c1cc(Cl)ccc1Cl", "note": "[Compound 18]", "IC50": "> 1000"}
{"smiles": "COc1ncc(Cl)cc1S(=O)(=O)Nc1ccc(F)c(-c2ccc3nc(N)ccc3c2)c1F", "note": "[Compound 20]", "IC50": "> 1000"}
{"smiles": "COc1ncc(Cl)cc1S(=O)(=O)Nc1ccc(F)c(-c2ccc3nc(N[C@H](C)CO)ncc3c2)c1F", "note": "[Compound 66]", "IC50": "< 10"}
{"smiles": "Nc1ncc2cc(-c3ccc(F)c(NS(=O)(=O)c4cc(Cl)ccc4Cl)c3F)ccc2n1", "note": "[Compound 12]", "IC50": "> 1000"}
{"smiles": "Nc1ncc2cc(-c3cc(F)cc(NS(=O)(=O)c4cc(Cl)ccc4Cl)c3)ccc2n1", "note": "[Compound 14]", "IC50": "> 1000"}
{"smiles": "COc1ncc(Cl)cc1S(=O)(=O)Nc1ccc(Cl)c(-c2ccc3nc(N)ncc3c2)c1Cl", "note": "[Compound 131]", "IC50": "10 to 100"}
{"smiles": "Cc1ccc(NS(=O)(=O)c2cc(Cl)ccc2Cl)cc1-c1ccc2nc(N)ncc2c1", "note": "[Compound 16]", "IC50": "100 to 1000"}
{"smiles": "O=S(=O)(Nc1ncc(F)c(-c2ccc3nc(NCCO)ncc3c2)c1F)c1cc(Cl)ccc1Cl", "note": "[Compound 128]", "IC50": "< 10"}
{"smiles": "COc1ccc(C)cc1S(=O)(=O)Nc1ccc(F)c(-c2ccc3nc(N)ncc3c2)c1F", "note": "[Compound 118]", "IC50": "10 to 100"}
{"smiles": "Cc1cc(S(=O)(=O)Nc2ccc(F)c(-c3ccc4nc(N)ncc4c3)c2F)c(C)cc1Cl", "note": "[Compound 109]", "IC50": "10 to 100"}
{"smiles": "Nc1ncnc2ccc(-c3c(F)ccc(NS(=O)(=O)c4cc(Cl)ccc4Cl)c3F)cc12", "note": "[Compound 17]", "IC50": "> 1000"}
{"smiles": "COc1ncc(Cl)cc1S(=O)(=O)Nc1ccc(F)c(-c2ccc3nc(N[C@H]4CC[C@@H](O)CC4)ncc3c2)c1F", "note": "[Compound 129]", "IC50": "< 10"}
{"smiles": "Nc1ncc2cc(-c3c(F)ccc(NS(=O)(=O)c4cccc(OC(F)(F)F)c4)c3F)ccc2n1", "note": "[Compound 139]", "IC50": "100 to 1000"}
{"smiles": "COc1ncc(Cl)cc1S(=O)(=O)Nc1ccc(F)c(-c2ccc3nc(NCCO)ncc3c2)c1F", "note": "[Compound 46]", "IC50": "< 10"}
{"smiles": "Nc1ncc2cc(-c3c(F)ccc(NS(=O)(=O)c4ccc(F)c(F)c4)c3F)ccc2n1", "note": "[Compound 132]", "IC50": "> 1000"}
{"smiles": "Nc1ncc2cc(-c3c(F)ccc(NS(=O)(=O)c4ccsc4)c3F)ccc2n1", "note": "[Compound 140]", "IC50": "> 1000"}
{"smiles": "O=S(=O)(Nc1ccc(F)c(-c2ccc3nc(NCCO)ncc3c2)c1F)c1cc(Cl)cc(CO)c1Cl", "note": "[Compound 134]", "IC50": "< 10"}
{"smiles": "Nc1ncc2c(-c3c(F)ccc(NS(=O)(=O)c4cc(Cl)ccc4Cl)c3F)cccc2n1", "note": "[Compound 111]", "IC50": "> 1000"}
{"smiles": "COc1ncc(Cl)cc1S(=O)(=O)Nc1ccc(F)c(-c2ccc3nc(N[C@@H](C)CO)ncc3c2)c1F", "note": "[Compound 157]", "IC50": "< 10"}
{"smiles": "Nc1ncc2cc(-c3c(F)ccc(NS(=O)(=O)c4ccc(F)c(Cl)c4)c3F)ccc2n1", "note": "[Compound 158]", "IC50": "100 to 1000"}
{"smiles": "Nc1ncc2cc(-c3c(F)ccc(NS(=O)(=O)c4cc(C(F)(F)F)cc(C(F)(F)F)c4)c3F)ccc2n1", "note": "[Compound 144]", "IC50": "10 to 100"}
{"smiles": "O=S(=O)(Nc1ccc(F)c(-c2ccc3nc(N[C@H]4CC[C@H](O)CC4)ncc3c2)c1F)c1cc(Cl)ccc1C(F)(F)F", "note": "[Compound 164]", "IC50": "< 10"}
{"smiles": "Nc1ncc2cc(-c3c(F)ccc(NS(=O)(=O)c4ccc5occc5c4)c3F)ccc2n1", "note": "[Compound 122]", "IC50": "100 to 1000"}
{"smiles": "Cc1ccc(F)cc1S(=O)(=O)Nc1ccc(F)c(-c2ccc3nc(N)ncc3c2)c1F", "note": "[Compound 133]", "IC50": "10 to 100"}
{"smiles": "Nc1ncc2cc(-c3c(F)ccc(NS(=O)(=O)c4ccc(Cl)cc4C(F)(F)F)c3F)ccc2n1", "note": "[Compound 137]", "IC50": "10 to 100"}
{"smiles": "COc1ncc(Cl)cc1S(=O)(=O)Nc1ccc(F)c(-c2ccc3nc(N[C@H](CO)c4ccccc4)ncc3c2)c1F", "note": "[Compound 163]", "IC50": "100 to 1000"}
{"smiles": "Nc1ncc2cc(-c3c(F)ccc(NS(=O)(=O)c4ccc(Cl)c(Cl)c4)c3F)ccc2n1", "note": "[Compound 9]", "IC50": "100 to 1000"}
{"smiles": "Nc1ncc2cc(-c3c(F)ccc(NS(=O)(=O)c4cc(F)cc(C(F)(F)F)c4)c3F)ccc2n1", "note": "[Compound 123]", "IC50": "> 1000"}
{"smiles": "CNc1ncc2cc(-c3c(F)ccc(NS(=O)(=O)c4cc(Cl)cc(CO)c4Cl)c3F)ccc2n1", "note": "[Compound 162]", "IC50": "10 to 100"}
{"smiles": "O=S(=O)(Nc1ccc(F)c(-c2ccc3nc(N[C@H]4CC[C@@H](O)CC4)ncc3c2)c1F)c1cc(Cl)ccc1C(F)(F)F", "note": "[Compound 165]", "IC50": "10 to 100"}
{"smiles": "COc1ccc(F)cc1S(=O)(=O)Nc1ccc(F)c(-c2ccc3nc(N)ncc3c2)c1F", "note": "[Compound 110]", "IC50": "> 1000"}
{"smiles": "Nc1ccc2cc(-c3c(F)ccc(NS(=O)(=O)c4cc(Cl)ccc4Cl)c3F)ccc2n1", "note": "[Compound 107]", "IC50": "> 1000"}
{"smiles": "Nc1ncc2cc(-c3c(F)ccc(N[S+]([O-])c4ccc(Cl)cc4Cl)c3F)ccc2n1", "note": "(centres unmarked) [Compound 15]", "IC50": "100 to 1000"}
